Laboratory results from PubChem BioAssay (NCI).
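These data come from cells grown in 96-well plates and exposed to compound for 48 hours at five concentrations. At the TGI there is no net growth.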

Legend:
Assay in all cases: inhibition of tumour cell growth, NCI panel, 48 h
[1] = tested on: BT-549 breast
[2] = tested on: NCI/ADR-RES ovarian
[3] = tested on: MDA-MB-435
[4] = tested on: SNB-75 CNS
[5] = tested on: SK-MEL-28 melanoma
[6] = tested on: SR leukemia
[7] = tested on: LOX IMVI melanoma
[8] = tested on: MCF7 breast
[9] = tested on: IGROV1 ovarian
[10] = tested on: HCC-2998 colon

Compound | TGI [1] [µM] | TGI [2] [µM] | TGI [3] [µM] | TGI [4] [µM] | TGI [5] [µM] | TGI [6] [µM] | TGI [7] [µM] | TGI [8] [µM] | TGI [9] [µM] | TGI [10] [µM]
N#Cc1c(-c2ccc(Cl)cc2)c2c(n(C3OC(CO)C(O)C(O)C3O)c1=S)CCC2 (stereo not drawn) | 65 | > 100 | 46.1 | 76.3 | 32.9 | > 100 | 34.3 | 40.9 | > 100 | 42.1
C=C(CO[Si](C)(C)C(C)(C)C)C(C)=O | 44 | 99.6 | 36.3 | 62.3 | 34.6 | > 31.6 | 24.7 | 76.7 | > 69.7 | 57.3
O=C(Cn1c(C(=O)/C=C/c2cccs2)nc2ccccc21)c1ccc(Cl)cc1 | 63.6 | 38.4 | > 100 | > 100 | > 100 | 22 | 27.3 | 48.4 | 77.7 | 29.8
CCOC(=O)C(NC(=O)CC)(Nc1cc(C)on1)C(F)(F)F (stereo not drawn) | > 100 | > 100 | > 100 | > 100 | > 100 | > 100 | > 100 |  | > 100 | > 100
CC(C)C(OC(=O)c1ccc(NCc2cc(O)ccc2O)cc1)C(C)C | 2.23 | 6.14 | 5.59 | 3.7 | 3.23 | 2.43 | 2.31 | 16.4 | 2.35 | 10.2
COC1OC2COC1(OC)C1OC(C)(C)OC21 (stereo not drawn) | > 100 | > 100 | > 100 | > 100 | > 100 | > 100 |  | > 100 | > 100 | > 100
CC(=O)Oc1c2oc3ccc(Cl)cc3c(=O)c2c(O)c2ccsc12 | > 100 | > 100 | > 100 | > 100 | > 100 |  | > 100 | > 100 |  | > 100
CC1CC/C(=C\c2ccc(Cl)cc2)C2OC(N)=C(C#N)C(c3ccc(Cl)cc3)=C12 (stereo not drawn) | 30.7 | 25.9 | 44.2 |  | 37.5 |  | 26.6 | 29.8 | 26.5 | 
CCN(C(=S)N[C@H](C(=O)N[C@@H](C)C(=O)OC)C(C)C)c1ccccc1 | > 100 | > 100 | > 100 |  | > 100 | 52.7 | > 100 | > 100 | > 100 | > 100
O=C(OCCN=c1c2ccccc2ccc2ccccc12)c1ccc([N+](=O)[O-])cc1 | > 100 | > 100 | > 100 | > 100 | > 100 | > 100 | > 100 | > 100 | > 100 | > 100
Cc1c(NC(=O)CSC(=S)N2CCN(Cc3ccccc3)CC2)c(=O)n(-c2ccccc2)n1C | > 100 | > 100 | > 100 |  | > 100 | > 100 | > 100 | > 100 | > 100 | > 100
CC1=NN(c2nc(N)nc(/C(C#N)=C/c3cccn3-c3cc(Cl)cc(Cl)c3)n2)C(C)(C)C1 | > 100 | > 100 | > 100 | 99.7 | > 100 | > 100 | > 100 | > 100 | > 100 | > 100
CCNC(=O)c1cc(/C=C/c2ccc([N+](=O)[O-])o2)nc2ccccc12 | > 100 | > 100 | 12.6 | 63.8 | 71.4 | > 100 | > 100 | > 100 | > 65.8 | > 100
O=C(Nc1ccccc1)N(CCCCN(Cc1ccccc1)C(=O)Nc1ccccc1)Cc1ccccc1 | > 100 | > 100 | > 100 | > 100 | > 100 | > 100 | > 100 | > 100 | > 100 | > 100
COc1cc(C2c3cc4c(cc3OC(NNC(N)=O)C2C)OCO4)cc(OC)c1O (stereo not drawn) | > 100 | > 76.1 |  | > 100 | > 100 | > 100 | > 100 | > 55 | > 100 | 6.5
COc1ccc(-c2cc(-c3cc4cc(Br)ccc4nc3Cl)c(C#N)c(N)n2)cc1 | > 12.5 | > 12.5 | > 12.5 | > 12.5 | > 12.5 | > 12.5 | > 12.5 | > 12.5 | > 12.5 | 
NNC(=O)Cn1c2ccc(Br)cc2c2nc3ccccc3nc21 | > 100 | > 100 | > 100 | > 100 | > 100 | > 100 |  | > 100 | > 100 | 
N#Cc1ccccc1-c1nc2c3c(c(N)ccc3n1)C(=O)c1ccccc1-2 | > 100 | > 100 | > 100 | > 100 | > 100 |  | > 100 | > 100 | > 100 | > 100
CCOC(=O)c1nc2ccc(C(F)(F)F)cc2nc1Oc1cc(OC)cc(OC)c1 | > 100 | > 100 | > 100 | 75.6 | > 100 |  | > 100 | > 100 | > 100 | 
COC(=O)C(Cc1ccccc1)NP(=O)(O)OCC1OC(n2cc(F)c(=O)[nH]c2=O)CC1O (stereo not drawn) | > 100 | > 100 | > 100 | > 100 | > 100 | > 56.5 | > 100 | > 100 | > 100 | > 100
COC(=O)c1c(O)ccc2c1c1c(n2Cc2cccc(C)c2)C(=O)c2ccccc2C1=O | 29 | 25 | 23.3 |  | 29.1 | 21 | 26.6 | 20.2 | 24.2 | 6.36
